Reference: PubChem BioAssay AID179 (DTP/NCI, 2004)
Calls of active or inactive are those of the source.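 Rule for the calls: active = compounds giving half or more protection of infected cells from virus-caused growth loss, again on retest; inactive = the rest.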

System: CEM cells HIV-1 protection, formazan growth assay
Test: NCI AIDS Antiviral Assay
Conditions: for IC50: measured here: growth of uninfected CEM cells
How it was run: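 Soluble formazan readout of cell growth; CEM cells ± HIV-1; 5 drug concs. ≥50% protection → retest; ≥50% again = moderately active; reproducible 100% = confirmed active.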

Row | SMILES | EC50 [µM] | IC50 [µM] | outcome
1 | O=C(CC(=O)C(=O)CC(=O)OCc1ccccc1)OCc1ccccc1 | > 105 | 89.1 | 
2 | C=C(C)CN1CCCN(S(=O)(=O)c2ccc(C)cc2)CC(=C)CN(S(=O)(=O)c2ccc(C)cc2)CCC1 | > 200 | 5.25 | 
3 | c1ccc([P+](c2ccccc2)(c2ccccc2)c2ccc([P+](c3ccccc3)(c3ccccc3)c3ccccc3)c3ccccc23)cc1 | > 200 | 110 | 
4 | Cc1cn2c(=O)c3ccccc3nc2s1 | > 4.79 | > 4.79 | 
5 | CSc1nc2c(nc(N)n2C2OCC(O)C(O)C2O)c(=O)[nH]1 (stereo not drawn) |  |  | inactive
6 | Cc1cc(C)c2c(O)c(S(=O)(=O)c3ccc(Cl)cc3)c(=O)oc2c1 | > 200 | 77.6 | 
7 | c1ccc(P(=C2c3ccccc3-c3ccccc32)(c2ccccc2)c2ccccc2)cc1 |  |  | inactive
8 | CC(=O)N(C)c1ccc2ncccc2c1[N+](=O)[O-] | > 1020 | 562 | 
9 | COc1ccc2c3c(c4cc(OC)c(OC)cc4c2c1)C[C@H]1CCCCN1C3 | > 31.6 | 0.01 | 
10 | O=CC(O)C(O)C(O)C(O)COP(=O)(O)Cc1ccccc1 (stereo not drawn) | > 200 | > 200 | 
11 | Cc1cc(=O)oc2c(C)c3oc(CBr)cc3cc12 | > 200 | 0.447 | 
12 | COC(=O)c1c(COC(=O)NC(C)C)c2n(c1C)CS(=O)(=O)C2 | > 200 | > 200 | 
13 | C/C=C/[C@@]1(OC(=O)c2ccccc2)C[C@@H]2CCCC[C@@H]21 |  |  | inactive
14 | CC#CC(O)(C(=O)OC1CC(C)N(C)C(C)(C)C1)C1CCCC1 (stereo not drawn) | > 200 | > 200 | 
15 | N#CC(c1ccccc1)[P+](c1ccccc1)(c1ccccc1)c1ccccc1 (stereo not drawn) | > 200 | 141 | 
16 | CS(=O)(=O)NNS(=O)(=O)c1ccc(Br)cc1 | > 398 | > 398 | 
17 | Cc1nc(-n2nc(-c3ccccc3)cc2-c2ccccc2)sc1C(=O)/C=C/c1ccc([N+](=O)[O-])cc1 | > 38 | 30.9 | 
18 | O=C(Cc1ccccc1)NN1C(=O)/C(=C\c2ccc(O)cc2)SC1=Nc1ccccc1 | > 31.6 | > 31.6 | 
19 | O=C1C(c2[nH]c3ccc(S(=O)(=O)O)cc3c2O)=Nc2ccc(S(=O)(=O)O)cc21 | > 200 | > 200 | 
20 | O=C1CC(=O)NC(=NN2C(=O)/C(=C/c3ccc(Cl)c(Cl)c3)N=C2c2ccccc2)N1 | > 200 | 21.9 | 
21 | O=[N+]([O-])c1cc(Cl)ccc1S(=O)(=O)c1cc(Cl)cc2c1NCCC2 | > 200 | 32.4 | 

Row | SMILES | EC50 [µM] | IC50 [µM] | outcome
22 | CCc1cc2c(c3c1CCCC3)CC1(Cc3ccc(C(=O)OC)cc3C1)C2 (stereo not drawn) | > 200 | > 200 | 
23 | COc1cc(O)c2c(=O)c(OC)c(-c3ccc(OC)c(OC)c3)oc2c1.[Co] | > 100 | 56.2 | 
24 | CCOC(=O)CCN1C(=O)C(=O)N(c2ccc(OC)cc2)C1=S | > 200 | 31.6 | 
25 | N=C(N)SC12CC3CC(CC(C3)C1)C2 | > 200 | 138 | 
26 | CN(C)CCNc1nc(-c2ccc3ccccc3c2)nc2nc[nH]c12 | > 200 | 3.8 | 
27 | O=Cc1ccc2c(c1-c1c(C=O)ccc3c1OCO3)OCO2 | > 170 | 79.4 | 
28 | O=C(O)c1nc2ccccc2nc1Nc1ccc(Cl)c(Cl)c1 | > 200 | 11.5 | 
29 | COc1ccc(/C=C2\CCC(C)C3=C(c4ccc(OC)c(OC)c4)C(C#N)=C(N)OC32)cc1OC (stereo not drawn) | > 200 | 8.32 | 
30 | N/N=C1\C(=O)N(C2CCCCCC2)C(=O)C1C(=O)NC1CCCCCC1 (stereo not drawn) | > 14.5 | > 14.5 | 
31 | C[C@H]1OCN(C(=O)c2cc3ccccc3cc2SSc2cc3ccccc3cc2C(=O)N2CO[C@H](C)[C@H]2C(=O)O)[C@@H]1C(=O)O | > 100 | > 100 | 
32 | CC(C)=CC(=O)N1CCN(C(=O)C=C(C)C)CC1 | > 501 | > 501 | 
33 | CC1(C)CCCOc2cccc(c2)OCCCC(C)(C)C1=O | > 200 | > 200 | 
34 | N#CC(C#N)=CSc1ccccc1 |  |  | inactive
35 | COc1cccc(NC(=O)CC(=O)n2nc(-c3ccccc3)c(N=Nc3ccc(Cl)cc3)c2-c2ccccc2)c1 | > 200 | 11.5 | 
36 | CCOc1ccnc2c(OC)c(C)c3nc4ccccc4nc3c12 | > 100 | > 100 | 
37 | N=c1c2ccccc2sc2nc3ccccc3n12 | > 52.5 | > 52.5 | 
38 | CCOC(=O)c1cc2c([nH]1)C(=O)CSC1=C2CCN1Cc1ccccc1 | > 50.1 | 21.9 | 
39 | Cc1ccc(S(=O)(=O)N2CC(O)C=Cc3ccccc32)cc1 (stereo not drawn) | > 200 | 3.16 | 
40 | CCOC(=O)CCC(=O)C1c2cccc(O)c2C(=O)c2c(O)cccc21 | > 28.2 | 4.9 | 
41 | CCN=C1NN=C(c2ccccc2)c2cc(Cl)ccc2N1 | > 120 | 21.9 | 
42 | COc1cc(C2c3cc4c(cc3OC(NN)C2C)OCO4)cc(OC)c1O (stereo not drawn) |  |  | inactive

Row | SMILES | EC50 [µM] | IC50 [µM] | outcome
43 | CCCCN(CCCC)c1cc(=O)nc2ccccn12 | > 200 | > 200 | 
44 | CC(C)(C)c1ccc(SS(=O)(=O)c2ccc(C(C)(C)C)cc2)cc1 | 20 | 22.9 | 
45 | C/C(=C\C(=O)Nc1ccc2n[nH]nc2c1)Nc1ccc2n[nH]nc2c1 |  |  | inactive
46 | NC1=NC(=O)[C@H](CSCc2ccccc2)N1C(=O)OCc1ccccc1 | > 200 | > 200 | 
47 | CCCC(=O)Nc1cc(/C=C/C(=O)N2CC(CCl)c3c2cc([N+](=O)[O-])c2ccccc32)n(C)c1 (stereo not drawn) | > 2 | 0.794 | 
48 | Clc1ccc(OCc2nnc(CCCCCCCCc3nnc(COc4ccc(Cl)cc4)o3)o2)cc1 | > 200 | 89.1 | 
49 | O=C(Nc1ccccc1CCl)Nc1ccccc1CCl (tested in a mixture with another compound) | > 200 | 41.7 | 
50 | CCN(CC)C(C(=O)Nc1c(C)cccc1C)N(CC)CC | > 200 | > 200 | 
51 | O=S1c2ccccc2N=C(c2ccc3ccccc3c2)CC1C1=CC=CCC1 (stereo not drawn) | > 18.6 | > 18.6 | 
52 | O=C(O)c1ccc(Sc2ccccc2)cc1 | > 200 | > 200 | 
53 | Cc1nc2c(-c3ccccc3)[nH]c(C)c2c(=O)o1 | > 200 | 69.2 | 
54 | C=C(C)CCOC(c1ccccc1)(c1ccccc1)c1ccccc1 | > 21.9 | > 21.9 | 
55 | COc1cccc2c1C(=O)c1c(O)c3c(c(O)c1C2=O)C[C@@](O)(C(C)=O)CC3OC1CC(N=[N+]=[N-])C(OC)C(C)O1 (stereo partly drawn) |  |  | inactive
56 | NC(=O)c1cn(Cc2ccccc2)c(=O)n1Cc1ccccc1 | > 117 | > 117 | 
57 | NC(=Nc1ccc(O)cc1)S(=O)(=O)O | 63.1 | 97.7 | 
58 | CCCN(CCC)c1nc2ccc(NC(=O)OCC)cc2s1 | > 42.7 | 32.4 | 
59 | N#C/C(=C\c1ccc(O)c(O)c1)C(=O)NC1CCC(CC2CCC(NC(=O)/C(C#N)=C/c3ccc(O)c(O)c3)CC2)CC1 (stereo not drawn) | > 200 | 1.07 | 
60 | Cc1ccccc1NCN1C(=O)S/C(=C2\C(=O)N(C)c3ccc(Br)cc32)C1=O | > 200 | 11.7 | 
61 | CC(=O)NS(=O)(=O)c1ccc(NC(=O)c2ccccc2SC(C)=O)cc1 | 17 | 112 | 
62 | COc1ccccc1/C=C/C(=O)c1ccccc1 | > 57.5 | 11.2 | 
63 | COc1c(OC)c(C=O)c2c(OC)c(-c3c(C)cc4c(C(C)C)c(OC)c(OC)c(C=O)c4c3OC)c(C)cc2c1C(C)C |  |  | inactive
